“And” between values parts separate entries of the source, which are not always exact repeats. Equal entries are not always repeated.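 Grown in 96-well plates, cells were treated for 48 hours with each compound at five concentrations. Insufficient inhibition: endpoint recorded as highest concentration tested. Abbreviation: GI50, concentration required for 50% inhibition of growth. The concentration for full growth arrest is given as TGI.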
How the values were obtained:
Assay in all cases: DTP human tumour cell line panel, 48 h
786-0 renal = tested on: 786-0 renal
A498 renal = tested on: A498 renal
A549 NSCLC = tested on: A549 NSCLC
ACHN renal = tested on: ACHN renal
BT-549 breast = tested on: BT-549 breast
CAKI-1 renal = tested on: CAKI-1 renal
CCRF-CEM leukemia = tested on: CCRF-CEM leukemia
COLO 205 colon = tested on: COLO 205 colon
DU-145 prostate = tested on: DU-145 prostate
EKVX NSCLC = tested on: EKVX NSCLC
HCC-2998 colon = tested on: HCC-2998 colon
HCT-116 colon = tested on: HCT-116 colon
HCT-15 colon = tested on: HCT-15 colon
HOP-62 NSCLC = tested on: HOP-62 NSCLC
HOP-92 NSCLC = tested on: HOP-92 NSCLC
KM12 colon = tested on: KM12 colon
LOX IMVI melanoma = tested on: LOX IMVI melanoma
M14 melanoma = tested on: M14 melanoma
MALME-3M melanoma = tested on: MALME-3M melanoma
MCF7 breast = tested on: MCF7 breast
MDA-MB-231 breast = tested on: MDA-MB-231 breast
MDA-MB-435 = tested on: MDA-MB-435
NCI-H226 lung = tested on: NCI-H226 lung
NCI-H23 lung = tested on: NCI-H23 lung
NCI-H460 lung = tested on: NCI-H460 lung
NCI/ADR-RES ovarian = tested on: NCI/ADR-RES ovarian
OVCAR-3 ovarian = tested on: OVCAR-3 ovarian
OVCAR-4 ovarian = tested on: OVCAR-4 ovarian
OVCAR-5 ovarian = tested on: OVCAR-5 ovarian
OVCAR-8 ovarian = tested on: OVCAR-8 ovarian
PC-3 prostate = tested on: PC-3 prostate
RPMI-8226 leukemia = tested on: RPMI-8226 leukemia
RXF 393 renal = tested on: RXF 393 renal
SF-268 CNS = tested on: SF-268 CNS
SF-295 CNS = tested on: SF-295 CNS
SF-539 CNS = tested on: SF-539 CNS
SK-MEL-2 melanoma = tested on: SK-MEL-2 melanoma
SK-MEL-28 melanoma = tested on: SK-MEL-28 melanoma
SK-MEL-5 melanoma = tested on: SK-MEL-5 melanoma
SK-OV-3 ovarian = tested on: SK-OV-3 ovarian
SNB-19 CNS = tested on: SNB-19 CNS
SNB-75 CNS = tested on: SNB-75 CNS
SW-620 colon = tested on: SW-620 colon
T-47D breast = tested on: T-47D breast
TK-10 renal = tested on: TK-10 renal
U251 CNS = tested on: U251 CNS
UACC-257 melanoma = tested on: UACC-257 melanoma
UACC-62 melanoma = tested on: UACC-62 melanoma
UO-31 renal = tested on: UO-31 renal
HS 578T breast = tested on: HS 578T breast
HT29 colon = tested on: HT29 colon
IGROV1 ovarian = tested on: IGROV1 ovarian
K-562 leukemia = tested on: K-562 leukemia
MOLT-4 leukemia = tested on: MOLT-4 leukemia
NCI-H522 lung = tested on: NCI-H522 lung
SN12C renal = tested on: SN12C renal

## Cc1ccc(C(C2C(=O)N(C)C(=O)N(C)C2=O)C(F)(F)C(=O)N(C)C)cc1 (stereo not given)
786-0 renal
  TGI: > 100 µM
A498 renal
  TGI: > 100 µM
A549 NSCLC
  TGI: > 100 µM
ACHN renal
  TGI: > 100 µM
BT-549 breast
  TGI: > 100 µM
CAKI-1 renal
  TGI: > 100 µM
CCRF-CEM leukemia
  TGI: > 100 µM
COLO 205 colon
  TGI: > 100 µM
DU-145 prostate
  TGI: > 100 µM
EKVX NSCLC
  TGI: > 100 µM
HCC-2998 colon
  TGI: > 100 µM
HCT-116 colon
  TGI: > 100 µM
HCT-15 colon
  TGI: > 100 µM
HOP-62 NSCLC
  TGI: > 100 µM
HOP-92 NSCLC
  TGI: > 100 µM
KM12 colon
  TGI: > 100 µM
LOX IMVI melanoma
  TGI: > 100 µM
M14 melanoma
  TGI: > 100 µM
MALME-3M melanoma
  TGI: > 100 µM
MCF7 breast
  TGI: > 100 µM
MDA-MB-231 breast
  TGI: > 100 µM
MDA-MB-435
  TGI: > 100 µM
NCI-H226 lung
  TGI: > 100 µM
NCI-H23 lung
  TGI: > 100 µM
NCI-H460 lung
  TGI: > 100 µM
NCI/ADR-RES ovarian
  TGI: > 100 µM
OVCAR-3 ovarian
  TGI: > 100 µM
OVCAR-4 ovarian
  TGI: > 100 µM
OVCAR-5 ovarian
  TGI: > 100 µM
OVCAR-8 ovarian
  TGI: > 100 µM
PC-3 prostate
  TGI: > 100 µM
RPMI-8226 leukemia
  TGI: > 100 µM
RXF 393 renal
  TGI: > 100 µM
SF-268 CNS
  TGI: > 100 µM
SF-295 CNS
  TGI: > 100 µM
SF-539 CNS
  TGI: > 100 µM
SK-MEL-2 melanoma
  TGI: > 100 µM
SK-MEL-28 melanoma
  TGI: > 100 µM
SK-MEL-5 melanoma
  TGI: > 100 µM
SK-OV-3 ovarian
  TGI: > 100 µM
SNB-19 CNS
  TGI: > 100 µM
SNB-75 CNS
  TGI: > 100 µM
SW-620 colon
  TGI: > 100 µM
T-47D breast
  TGI: > 100 µM
TK-10 renal
  TGI: > 100 µM
U251 CNS
  TGI: > 100 µM
UACC-257 melanoma
  TGI: > 100 µM
UACC-62 melanoma
  TGI: > 100 µM
UO-31 renal
  TGI: > 100 µM

## C/C=C/CC(C)C(O)C1C(=O)NC(CC)C(=O)N(C)CC(=O)N(C)C(CC(C)C)C(=O)NC(C(C)C)C(=O)N(C)C(CC(C)C)C(=O)NC(C)C(=O)NC(C)C(=O)N(C)C(CC(C)C)C(=O)N(C)C(CC(C)C)C(=O)N(C)C(C(C)C)C(=O)N1C (stereo not given)
BT-549 breast
  GI50: 2.02 µM
  TGI: 6.92 µM
DU-145 prostate
  GI50: 1.43 µM
  TGI: > 32.5 µM
HOP-92 NSCLC
  GI50: 1.09 µM
  TGI: 9.02 µM and 14.8 µM
HS 578T breast
  GI50: 3.36 µM
  TGI: 28.2 µM
MCF7 breast
  GI50: 2.71 µM
  TGI: > 32.5 µM
MDA-MB-231 breast
  GI50: 3.79 µM
  TGI: 9.57 µM
MDA-MB-435
  GI50: 0.609 µM
  TGI: 4.62 µM
NCI-H226 lung
  GI50: 2.29 µM
  TGI: 6.66 µM and 13.8 µM
NCI-H23 lung
  GI50: 1.2 µM
  TGI: > 32.5 µM and 28.6 µM
NCI/ADR-RES ovarian
  GI50: 1.44 µM
  TGI: > 32.5 µM
PC-3 prostate
  GI50: 0.97 µM
  TGI: > 32.5 µM
T-47D breast
  GI50: 0.842 µM
  TGI: 5.32 µM
UACC-257 melanoma
  GI50: 0.747 µM
  TGI: 5.57 µM and 8.67 µM

## COc1ccccc1C#Cc1ccccc1C#CCCCCCC#Cc1ccccc1C#Cc1ccccc1OC
786-0 renal
  GI50: > 100 µM
  TGI: > 100 µM
A498 renal
  GI50: > 100 µM
  TGI: > 100 µM
A549 NSCLC
  GI50: > 100 µM
  TGI: > 100 µM
ACHN renal
  GI50: > 100 µM
  TGI: > 100 µM
BT-549 breast
  GI50: > 100 µM
  TGI: > 100 µM
CAKI-1 renal
  GI50: 41.2 µM
  TGI: > 100 µM
CCRF-CEM leukemia
  GI50: 65.4 µM
  TGI: > 100 µM
COLO 205 colon
  GI50: 80.1 µM
  TGI: > 100 µM
DU-145 prostate
  GI50: > 100 µM
  TGI: > 100 µM
EKVX NSCLC
  GI50: > 100 µM
  TGI: > 100 µM
HCC-2998 colon
  GI50: 18.8 µM
  TGI: 69.7 µM
HCT-116 colon
  GI50: 58 µM
  TGI: > 100 µM
HCT-15 colon
  GI50: 40.9 µM
  TGI: > 100 µM
HOP-62 NSCLC
  GI50: > 100 µM
  TGI: > 100 µM
HS 578T breast
  GI50: > 100 µM
  TGI: > 100 µM
HT29 colon
  GI50: 24.6 µM
  TGI: > 100 µM
IGROV1 ovarian
  GI50: 77.7 µM
  TGI: > 100 µM
K-562 leukemia
  GI50: 31 µM
  TGI: > 100 µM
KM12 colon
  GI50: 75 µM
  TGI: > 100 µM
LOX IMVI melanoma
  GI50: 98.1 µM
  TGI: > 100 µM
M14 melanoma
  GI50: 48.7 µM
  TGI: > 100 µM
MALME-3M melanoma
  GI50: > 100 µM
  TGI: > 100 µM
MCF7 breast
  GI50: 17.3 µM
  TGI: > 100 µM
MDA-MB-231 breast
  GI50: 60.3 µM
  TGI: > 100 µM
MDA-MB-435
  GI50: 83.8 µM
  TGI: > 100 µM
MOLT-4 leukemia
  GI50: > 100 µM
  TGI: > 100 µM
NCI-H226 lung
  GI50: > 100 µM
  TGI: > 100 µM
NCI-H23 lung
  GI50: 43.9 µM
  TGI: > 100 µM
NCI-H460 lung
  GI50: > 100 µM
  TGI: > 100 µM
NCI-H522 lung
  GI50: 40.3 µM
  TGI: > 100 µM
NCI/ADR-RES ovarian
  GI50: 78.6 µM
  TGI: > 100 µM
OVCAR-3 ovarian
  GI50: 93.5 µM
  TGI: > 100 µM
OVCAR-4 ovarian
  GI50: 13.7 µM
  TGI: 84.4 µM
OVCAR-5 ovarian
  GI50: > 100 µM
  TGI: > 100 µM
OVCAR-8 ovarian
  GI50: > 100 µM
  TGI: > 100 µM
PC-3 prostate
  GI50: > 100 µM
  TGI: > 100 µM
RPMI-8226 leukemia
  GI50: 29 µM
  TGI: > 100 µM
RXF 393 renal
  GI50: 26.6 µM
  TGI: > 100 µM
SF-268 CNS
  GI50: 96.5 µM
  TGI: > 100 µM
SF-295 CNS
  GI50: > 100 µM
  TGI: > 100 µM
SF-539 CNS
  GI50: > 100 µM
  TGI: > 100 µM
SK-MEL-2 melanoma
  GI50: > 100 µM
  TGI: > 100 µM
SK-MEL-28 melanoma
  GI50: 68.6 µM
  TGI: > 100 µM
SK-MEL-5 melanoma
  GI50: > 100 µM
  TGI: > 100 µM
SK-OV-3 ovarian
  GI50: > 100 µM
  TGI: > 100 µM
SN12C renal
  GI50: > 100 µM
  TGI: > 100 µM
SNB-19 CNS
  GI50: > 100 µM
  TGI: > 100 µM
SNB-75 CNS
  GI50: 1.81 µM
  TGI: 14.3 µM
SW-620 colon
  GI50: > 100 µM
  TGI: > 100 µM
T-47D breast
  GI50: 6.75 µM
  TGI: > 100 µM
TK-10 renal
  GI50: > 100 µM
  TGI: > 100 µM
U251 CNS
  GI50: 97.1 µM
  TGI: > 100 µM
UACC-257 melanoma
  GI50: > 100 µM
  TGI: > 100 µM
UACC-62 melanoma
  GI50: > 100 µM
  TGI: > 100 µM
UO-31 renal
  GI50: > 100 µM
  TGI: > 100 µM

From PubChem BioAssay (NCI)
